According to patent US20260284014A1, “3,5-DIAMINOTRIAZOLE DERIVATIVES AND USES THEREOF FOR TREATING OCULAR DISEASES” (CENTRE NATIONAL DE LA RECHERCHE SCIENTIFIQUE, priority 2023, published 2026):

Tests used:
Format in all cases: cell-based
ARPE-19 cells = experiment: Cell viability (XTT assay); settings: Homo sapiens, 48 h, read-out: A. Safety IC50 on ARPE-19 cells
Procedure: ARPE-19 cells were incubated in a 96-well plate with different effectors for 48 hours. Fifty microliters of sodium 3′-[1-phenylaminocarbonyl)-3,4-tetrazolium]-bis(4-methoxy-6-nitro) benzene sulfonic acid hydrate (XTT) reagent was added to each well. The test is based on the cleavage of the yellow tetrazolium salt XTT to form an orange formazan dye by metabolically active cells. This bio-reduction occurs in viable cells only and is associated with NAD(P)H production through glycolysis. Therefore, the amount of formazan dye measured at 490 nm, correlates directly with the number of metabolically active cells reflecting cell proliferation, viability, and cytotoxicity. Each assay was performed in quadruplicate.
(§1) All compounds were evaluated in different experiments. Results are represented as the mean of three independent experiments. A. ARPE-19 cells were treated with dose response of compound for 48 h. Values are reported as IC50 measured with the XTT assay. B and C. ARPE-19 cells were treated with 5 μM (B) or 1 μM (C) compound then with 200 μM H2O2 for 2 h. ROS were analyzed by cytometry. […] As illustrated in FIG. 1A. D. ARPE-19 cells were treated with 2.5 μM compound for 48 h and the level of CXCL1 mRNA was evaluated by qPCR. […] As illustrated in FIG. 1B. E. TIME cells were pre-treated with 2.5 μM compound for 1 h then stimulated with 100 ng/ml CXCL8 for 15 min p-ERK levels were analyzed by immunoblotting. HSP90 served as loading control. […] As illustrated in FIG. 1C.

ERK activation (p-ERK) = experiment: p-ERK immunoblotting after CXCL8 stimulation; settings: 2.5 μM compound 1 h then 100 ng/ml CXCL8 for 15 min; read-out: E. p-ERK inhibition - TIME
Procedure: Cells were lysed in buffer containing 3% SDS, 10% glycerol and 0.825 mM Na2HPO4. 30 to 50 μg of proteins separated on 10% SDS-PAGE, transferred onto a PVDF membrane and then exposed to the appropriate antibodies. Proteins were visualized with the ECL system using horseradish peroxidase-conjugated anti-rabbit or anti-mouse antibodies.
as §1

ROS = ROS labeling by cytometry after H2O2; settings: Homo sapiens, ARPE-19; for inhibition at 1 µM: 1 μM compound then 200 μM H2O2 for 2 h, read-out: C. ROS inhibition 1 μM - ARPE-19 cells; for inhibition at 5 µM: 5 μM compound then 200 μM H2O2 for 2 h, read-out: B. ROS inhibition 5 μM - ARPE-19 cells
Procedure: ARPE-19 cells were treated with MCK349 30 minutes then with 200 μM H2O2 for 2 h. 10 μM DCF-DA (2′,7′-Dichlorofluorescein diacetate) were added on cell media for 30 min. Cells were rinsed then detached (trypsin) and resuspended in PBS 0.5% BSA and 2 mM EDTA. The cells are analyzed by cytometry (ROS labeled with DCFDA-FITC).
as §1

SMILES | IC50 (ARPE-19 cells) [µM] | inhibition at 2.5 µM (ERK activation (p-ERK)) [%] | inhibition at 1 µM (ROS) [%] | inhibition at 5 µM (ROS) [%]
Nc1nc(Nc2ccccc2)n(Cc2ccccc2)n1 [MCK248, 1-benzyl-N^5-phenyl-1H-1,2,4-triazole-3,5-diamine] | > 25 | < 50 | < 50 | ≥ 50
Nc1nc(Nc2ccccc2)nn1Cc1ccccc1 [MCK249, 1-benzyl-N^3-phenyl-1H-1,2,4-triazole-3,5-diamine] | > 25 | < 50 | < 50 | ≥ 50
Cc1ccccc1Cn1nc(Nc2ccccc2)nc1N [MCK250, 1-(2-methylbenzyl)-N^3-phenyl-1H-1,2,4-triazole-3,5-diamine] | > 25 | < 50 | ≥ 50 | ≥ 50
Nc1nc(Nc2ccccn2)nn1Cc1ccccc1 [MCK253, 1-benzyl-N^3-(pyridin-2-yl)-1H-1,2,4-triazole-3,5-diamine] | > 25 | < 50 | < 50 | < 50
Nc1nc(Nc2cccnc2)nn1Cc1ccccc1 [MCK254, 1-benzyl-N^3-(pyridin-3-yl)-1H-1,2,4-triazole-3,5-diamine] | > 25 | < 50 | < 50 | < 50
Nc1nc(Nc2ccccc2)n(Cc2c(F)cccc2F)n1 [MCK257, 1-(2,6-difluorobenzyl)-N^5-phenyl-1H-1,2,4-triazole-3,5-diamine] | > 25 | ≥ 50 | ≥ 50 | ≥ 50
Nc1nc(Nc2ccccn2)nn1Cc1c(F)cccc1F [MCK259, 1-(2,6-difluorobenzyl)-N^3-(pyridin-2-yl)-1H-1,2,4-triazole-3,5-diamine] | > 25 | ≥ 50 | < 50 | < 50
COc1cccc(Cn2nc(N)nc2Nc2ccccc2)c1 [MCK260, 1-(3-methoxybenzyl)-N^5-phenyl-1H-1,2,4-triazole-3,5-diamine] | > 25 | ≥ 50 | ≥ 50 | ≥ 50
COc1cccc(Cn2nc(Nc3ccccc3)nc2N)c1 [MCK261, 1-(3-methoxybenzyl)-N^3-phenyl-1H-1,2,4-triazole-3,5-diamine] | > 25 | ≥ 50 | < 50 | ≥ 50
CC(C)c1ccc(Cn2nc(N)nc2Nc2ccccc2)cc1 [MCK262, 1-(4-isopropylbenzyl)-N^5-phenyl-1H-1,2,4-triazole-3,5-diamine] | > 25 | ≥ 50 | ≥ 50 | ≥ 50
Nc1nc(Nc2ccccc2)nn1Cc1cccc(Br)c1 [MCK264, 1-(3-bromobenzyl)-N^3-phenyl-1H-1,2,4-triazole-3,5-diamine] | > 25 | ≥ 50 | ≥ 50 | ≥ 50
Nc1nc(Nc2ccccc2)nn1Cc1c(Cl)cccc1Cl [MCK268, 1-(2,6-dichlorobenzyl)-N^3-phenyl-1H-1,2,4-triazole-3,5-diamine] | > 25 | ≥ 50 | < 50 | ≥ 50
Cc1ccccc1Cn1nc(Nc2ccccn2)nc1N [MCK269, 1-(2-methylbenzyl)-N^3-(pyridin-2-yl)-1H-1,2,4-triazole-3,5-diamine] | > 25 | ≥ 50 | ≥ 50 | ≥ 50
Cc1ccc(Cn2nc(Nc3ccccc3)nc2N)cc1 [MCK271, 1-(4-methylbenzyl)-N^3-phenyl-1H-1,2,4-triazole-3,5-diamine] | > 25 | ≥ 50 | ≥ 50 | ≥ 50
Nc1nc(Nc2ccccc2)nn1Cc1ccc(Cl)cc1 [MCK272, 1-(4-chlorobenzyl)-N^3-phenyl-1H-1,2,4-triazole-3,5-diamine] | > 25 | ≥ 50 | < 50 | ≥ 50
Nc1nc(Nc2ccccc2)nn1Cc1cccc(C(F)(F)F)c1 [MCK273, N^3-phenyl-1-(3-(trifluoromethyl)benzyl)-1H-1,2,4-triazole-3,5-diamine] | > 25 | ≥ 50 | ≥ 50 | ≥ 50
Nc1nc(Nc2ccccc2)nn1Cc1cc(F)cc(F)c1 [MCK274, 1-(3,5-difluorobenzyl)-N^3-phenyl-1H-1,2,4-triazole-3,5-diamine] | > 25 | < 50 | ≥ 50 | ≥ 50
Nc1nc(Nc2ccccc2)nn1Cc1cccc([N+](=O)[O-])c1 [MCK275] | > 25 | < 50 | ≥ 50 | ≥ 50
Nc1nc(Nc2ccccn2)nn1Cc1cccc(Br)c1 [MCK276, 1-(3-bromobenzyl)-N^3-(pyridin-2-yl)-1H-1,2,4-triazole-3,5-diamine] | > 25 | ≥ 50 | < 50 | < 50
Nc1nc(Nc2ccccn2)nn1Cc1c(Cl)cccc1Cl [MCK278, 1-(2,6-dichlorobenzyl)-N^3-(pyridin-2-yl)-1H-1,2,4-triazole-3,5-diamine] | > 25 | ≥ 50 | < 50 | < 50
Cc1ccc(Cn2nc(Nc3ccccn3)nc2N)cc1 [MCK279, 1-(4-methylbenzyl)-N^3-(pyridin-2-yl)-1H-1,2,4-triazole-3,5-diamine] | > 25 | ≥ 50 | < 50 | < 50
Nc1nc(Nc2ccccn2)nn1Cc1ccc(Cl)cc1 [MCK280, 1-(4-chlorobenzyl)-N^3-(pyridin-2-yl)-1H-1,2,4-triazole-3,5-diamine] | > 25 | ≥ 50 | < 50 | < 50
N#Cc1ccc(Cn2nc(Nc3ccccn3)nc2N)cc1 [MCK281, 4-((5-amino-3-(pyridin-2-ylamino)-1H-1,2,4-triazol-1-yl)methyl)benzonitrile] | > 25 | ≥ 50 | < 50 | < 50
Nc1nc(Nc2ccccn2)nn1Cc1cccc(C(F)(F)F)c1 [MCK282, N^3-(pyridin-2-yl)-1-(3-(trifluoromethyl)benzyl)-1H-1,2,4-triazole-3,5-diamine] | > 25 | ≥ 50 | < 50 | < 50
Nc1nc(Nc2ccccn2)nn1Cc1cc(F)cc(F)c1 [MCK283, 1-(3,5-difluorobenzyl)-N^3-(pyridin-2-yl)-1H-1,2,4-triazole-3,5-diamine] | > 25 | ≥ 50 | < 50 | < 50
Nc1nc(Nc2ccccn2)nn1Cc1ccc(F)cc1F [MCK284, 1-(2,4-difluorobenzyl)-N^3-(pyridin-2-yl)-1H-1,2,4-triazole-3,5-diamine] | > 25 | ≥ 50 | < 50 | < 50
Nc1nc(Nc2ccccc2)nn1Cc1ccc([N+](=O)[O-])cc1 [MCK288] | > 25 | < 50 | ≥ 50 | ≥ 50
